{"source": "patent US20240082274A1", "about": "“FUNGAL COMPOUND COMPOSITIONS AND METHODS FOR MODULATING INFLAMMATION” (TURTLE BEAR HOLDINGS, LLC, priority 2021, published 2024)", "key": {"IL-10": {"tested_on": "IL-10", "assay": "IL-10 expression in human PBMCs under standard non-inflammatory conditions", "type": "cell-based", "settings": "at multiple concentrations", "protocol": "In a separate experiment, human peripheral blood mononuclear cells (PBMCs) were treated with different concentrations of norbaeocystin, norpsilocin, and vehicle control under standard non-inflammatory conditions, and IL-10 expression was measured."}, "TRKB (NTRK2)": {"target": "T1, TRKB (NTRK2) (Homo sapiens, UniProt Q16620)", "T1 construct": "purchased DiscoveRx", "T1 sequence (Q16620 32-822)": "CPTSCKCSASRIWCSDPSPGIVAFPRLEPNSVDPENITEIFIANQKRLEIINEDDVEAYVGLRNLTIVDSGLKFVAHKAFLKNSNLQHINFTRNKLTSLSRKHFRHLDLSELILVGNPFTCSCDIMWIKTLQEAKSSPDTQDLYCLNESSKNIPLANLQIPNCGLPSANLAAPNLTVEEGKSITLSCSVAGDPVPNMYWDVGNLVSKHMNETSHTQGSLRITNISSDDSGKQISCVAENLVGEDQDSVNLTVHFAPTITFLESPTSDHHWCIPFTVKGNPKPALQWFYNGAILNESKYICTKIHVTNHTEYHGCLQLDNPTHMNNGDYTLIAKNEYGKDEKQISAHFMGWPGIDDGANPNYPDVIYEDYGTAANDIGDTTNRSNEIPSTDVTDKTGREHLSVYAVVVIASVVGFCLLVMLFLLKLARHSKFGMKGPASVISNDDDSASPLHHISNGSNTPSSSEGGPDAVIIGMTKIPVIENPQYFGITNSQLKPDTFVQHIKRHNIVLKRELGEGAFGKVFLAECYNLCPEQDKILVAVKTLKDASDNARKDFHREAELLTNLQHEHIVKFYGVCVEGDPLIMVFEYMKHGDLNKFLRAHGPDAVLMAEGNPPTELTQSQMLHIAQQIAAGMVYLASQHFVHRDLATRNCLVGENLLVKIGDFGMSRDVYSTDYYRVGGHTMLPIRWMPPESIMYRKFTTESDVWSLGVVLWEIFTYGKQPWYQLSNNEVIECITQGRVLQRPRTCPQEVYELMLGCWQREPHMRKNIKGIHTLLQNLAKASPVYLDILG", "assay": "MAPK binding affinity screen (DiscoveRx)", "settings": "component alone, row of combination at 5 μg/mL"}, "p38-alpha (MAPK14)": {"target": "T2, p38-alpha (MAPK14) (Homo sapiens, UniProt Q16539)", "T2 construct": "purchased DiscoveRx", "T2 sequence (Q16539 whole entry)": "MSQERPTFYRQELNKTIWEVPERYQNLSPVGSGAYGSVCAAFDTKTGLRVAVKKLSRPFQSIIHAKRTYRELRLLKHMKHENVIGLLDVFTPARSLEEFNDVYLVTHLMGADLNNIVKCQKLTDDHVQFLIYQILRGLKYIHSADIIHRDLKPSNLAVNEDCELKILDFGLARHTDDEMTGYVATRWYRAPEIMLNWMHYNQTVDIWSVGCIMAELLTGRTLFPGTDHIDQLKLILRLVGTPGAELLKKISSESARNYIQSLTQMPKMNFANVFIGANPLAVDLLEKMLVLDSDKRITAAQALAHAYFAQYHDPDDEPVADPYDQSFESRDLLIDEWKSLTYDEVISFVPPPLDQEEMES", "assay": "MAPK binding affinity screen (DiscoveRx)", "settings": "component alone"}, "[1]": {"target": "T3, JAK1 (JH1domain-catalytic) (Homo sapiens, UniProt P23458)", "T3 construct": "(JH1domain-; purchased DiscoveRx", "T3 sequence (P23458 875-1153 limits assumed)": "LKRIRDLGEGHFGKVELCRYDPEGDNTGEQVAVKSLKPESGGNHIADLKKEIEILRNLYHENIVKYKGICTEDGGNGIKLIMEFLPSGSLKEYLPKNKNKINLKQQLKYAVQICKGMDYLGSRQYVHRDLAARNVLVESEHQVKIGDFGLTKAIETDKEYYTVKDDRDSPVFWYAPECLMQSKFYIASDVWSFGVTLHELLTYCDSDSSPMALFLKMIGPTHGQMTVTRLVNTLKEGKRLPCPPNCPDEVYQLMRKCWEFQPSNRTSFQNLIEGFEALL", "assay": "MAPK binding affinity screen (DiscoveRx)", "settings": "component alone"}, "TRKA (NTRK1)": {"target": "T4, TRKA (NTRK1) (Homo sapiens, UniProt P04629)", "T4 construct": "purchased DiscoveRx", "T4 sequence (P04629 33-796)": "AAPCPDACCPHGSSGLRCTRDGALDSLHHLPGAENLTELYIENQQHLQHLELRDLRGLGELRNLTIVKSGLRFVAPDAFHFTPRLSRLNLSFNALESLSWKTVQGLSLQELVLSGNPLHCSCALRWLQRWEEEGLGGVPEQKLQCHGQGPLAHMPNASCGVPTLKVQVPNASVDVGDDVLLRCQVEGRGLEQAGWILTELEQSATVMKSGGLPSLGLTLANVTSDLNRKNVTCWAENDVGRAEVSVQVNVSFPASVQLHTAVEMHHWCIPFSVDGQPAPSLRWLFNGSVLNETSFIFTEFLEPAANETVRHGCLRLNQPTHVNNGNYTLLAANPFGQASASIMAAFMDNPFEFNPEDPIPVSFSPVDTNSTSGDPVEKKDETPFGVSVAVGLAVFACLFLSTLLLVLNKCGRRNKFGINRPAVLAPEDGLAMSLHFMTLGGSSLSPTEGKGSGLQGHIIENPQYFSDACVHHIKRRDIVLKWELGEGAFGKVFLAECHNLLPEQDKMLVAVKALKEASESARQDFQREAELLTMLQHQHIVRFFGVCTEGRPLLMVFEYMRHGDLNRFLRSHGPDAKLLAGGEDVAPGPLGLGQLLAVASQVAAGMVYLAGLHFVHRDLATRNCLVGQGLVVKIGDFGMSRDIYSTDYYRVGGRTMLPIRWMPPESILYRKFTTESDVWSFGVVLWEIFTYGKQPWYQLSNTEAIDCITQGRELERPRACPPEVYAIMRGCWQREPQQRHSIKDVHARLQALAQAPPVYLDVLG", "assay": "MAPK binding affinity screen (DiscoveRx)", "settings": "component alone"}, "JNK3 (MAPK10)": {"target": "T5, JNK3 (MAPK10) (Homo sapiens, UniProt P53779)", "T5 construct": "purchased DiscoveRx", "T5 sequence (P53779 whole entry)": "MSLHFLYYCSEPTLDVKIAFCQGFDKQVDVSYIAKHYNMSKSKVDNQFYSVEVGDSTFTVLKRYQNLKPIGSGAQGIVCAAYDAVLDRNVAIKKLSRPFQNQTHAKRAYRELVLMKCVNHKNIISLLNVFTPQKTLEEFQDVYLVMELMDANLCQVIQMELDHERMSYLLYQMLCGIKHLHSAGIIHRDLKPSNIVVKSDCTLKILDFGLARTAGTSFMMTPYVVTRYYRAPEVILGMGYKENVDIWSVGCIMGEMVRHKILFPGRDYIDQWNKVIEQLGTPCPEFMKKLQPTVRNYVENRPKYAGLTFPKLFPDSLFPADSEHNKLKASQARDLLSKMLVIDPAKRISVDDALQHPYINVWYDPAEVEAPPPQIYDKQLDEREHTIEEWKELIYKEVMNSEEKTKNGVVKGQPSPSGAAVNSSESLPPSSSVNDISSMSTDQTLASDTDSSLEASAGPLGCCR", "assay": "MAPK binding affinity screen (DiscoveRx)", "settings": "component alone"}, "IL-6": {"tested_on": "IL-6", "settings": "human PBMCs, 100 ng/mL LPS; 0.43 μg/mL; FIG. 12", "experimental": "Human PBMCs were treated with 100 ng/mL LPS to induce inflammatory conditions."}, "TNF-α": {"tested_on": "TNF-α", "assay": "TNF-α expression in LPS-induced human PBMCs", "type": "cell-based", "settings": "100 ng/mL LPS, individual components, FIG. 13"}, "MAO-A": {"target": "T6, MAO-A (Homo sapiens, UniProt P21397)", "T6 sequence (P21397 1-527)": "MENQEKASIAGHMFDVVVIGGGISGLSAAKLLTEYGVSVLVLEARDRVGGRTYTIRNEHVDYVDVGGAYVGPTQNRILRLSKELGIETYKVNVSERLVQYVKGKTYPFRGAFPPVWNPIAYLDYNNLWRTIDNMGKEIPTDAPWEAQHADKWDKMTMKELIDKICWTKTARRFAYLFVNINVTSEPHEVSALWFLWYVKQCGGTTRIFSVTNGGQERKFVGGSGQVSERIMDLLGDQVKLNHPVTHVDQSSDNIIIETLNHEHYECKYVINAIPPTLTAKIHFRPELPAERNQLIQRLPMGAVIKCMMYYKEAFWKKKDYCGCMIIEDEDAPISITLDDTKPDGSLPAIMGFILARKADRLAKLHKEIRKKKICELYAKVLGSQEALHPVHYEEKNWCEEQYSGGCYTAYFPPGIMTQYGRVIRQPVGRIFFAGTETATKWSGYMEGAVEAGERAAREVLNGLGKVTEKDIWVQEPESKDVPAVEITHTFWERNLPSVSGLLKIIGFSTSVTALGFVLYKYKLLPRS", "settings": "Herraiz et al., 2010; cited from earlier work"}, "MAO-B": {"target": "T7, MAO-B (Homo sapiens, UniProt P27338)", "T7 sequence (P27338 1-520)": "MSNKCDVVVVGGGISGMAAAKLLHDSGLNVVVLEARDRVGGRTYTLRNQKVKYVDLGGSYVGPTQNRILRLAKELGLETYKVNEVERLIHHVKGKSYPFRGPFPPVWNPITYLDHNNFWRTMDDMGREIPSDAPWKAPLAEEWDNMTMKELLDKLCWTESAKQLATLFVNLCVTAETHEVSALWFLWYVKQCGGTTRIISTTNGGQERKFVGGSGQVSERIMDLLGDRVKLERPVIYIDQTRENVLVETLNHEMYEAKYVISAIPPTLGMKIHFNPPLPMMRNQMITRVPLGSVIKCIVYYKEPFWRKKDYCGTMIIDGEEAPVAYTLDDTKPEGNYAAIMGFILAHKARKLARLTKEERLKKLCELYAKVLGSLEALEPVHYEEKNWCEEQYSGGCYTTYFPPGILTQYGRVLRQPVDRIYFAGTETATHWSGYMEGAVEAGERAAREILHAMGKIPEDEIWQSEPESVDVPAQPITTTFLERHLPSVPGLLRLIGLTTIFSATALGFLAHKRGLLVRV", "settings": "Herraiz et al., 2010; cited from earlier work"}, "[2]": {"settings": "cited from earlier work"}, "ROCK2": {"target": "T8, ROCK2 (Homo sapiens, UniProt O75116)", "T8 construct": "purchased DiscoveRx", "T8 sequence (O75116 whole entry)": "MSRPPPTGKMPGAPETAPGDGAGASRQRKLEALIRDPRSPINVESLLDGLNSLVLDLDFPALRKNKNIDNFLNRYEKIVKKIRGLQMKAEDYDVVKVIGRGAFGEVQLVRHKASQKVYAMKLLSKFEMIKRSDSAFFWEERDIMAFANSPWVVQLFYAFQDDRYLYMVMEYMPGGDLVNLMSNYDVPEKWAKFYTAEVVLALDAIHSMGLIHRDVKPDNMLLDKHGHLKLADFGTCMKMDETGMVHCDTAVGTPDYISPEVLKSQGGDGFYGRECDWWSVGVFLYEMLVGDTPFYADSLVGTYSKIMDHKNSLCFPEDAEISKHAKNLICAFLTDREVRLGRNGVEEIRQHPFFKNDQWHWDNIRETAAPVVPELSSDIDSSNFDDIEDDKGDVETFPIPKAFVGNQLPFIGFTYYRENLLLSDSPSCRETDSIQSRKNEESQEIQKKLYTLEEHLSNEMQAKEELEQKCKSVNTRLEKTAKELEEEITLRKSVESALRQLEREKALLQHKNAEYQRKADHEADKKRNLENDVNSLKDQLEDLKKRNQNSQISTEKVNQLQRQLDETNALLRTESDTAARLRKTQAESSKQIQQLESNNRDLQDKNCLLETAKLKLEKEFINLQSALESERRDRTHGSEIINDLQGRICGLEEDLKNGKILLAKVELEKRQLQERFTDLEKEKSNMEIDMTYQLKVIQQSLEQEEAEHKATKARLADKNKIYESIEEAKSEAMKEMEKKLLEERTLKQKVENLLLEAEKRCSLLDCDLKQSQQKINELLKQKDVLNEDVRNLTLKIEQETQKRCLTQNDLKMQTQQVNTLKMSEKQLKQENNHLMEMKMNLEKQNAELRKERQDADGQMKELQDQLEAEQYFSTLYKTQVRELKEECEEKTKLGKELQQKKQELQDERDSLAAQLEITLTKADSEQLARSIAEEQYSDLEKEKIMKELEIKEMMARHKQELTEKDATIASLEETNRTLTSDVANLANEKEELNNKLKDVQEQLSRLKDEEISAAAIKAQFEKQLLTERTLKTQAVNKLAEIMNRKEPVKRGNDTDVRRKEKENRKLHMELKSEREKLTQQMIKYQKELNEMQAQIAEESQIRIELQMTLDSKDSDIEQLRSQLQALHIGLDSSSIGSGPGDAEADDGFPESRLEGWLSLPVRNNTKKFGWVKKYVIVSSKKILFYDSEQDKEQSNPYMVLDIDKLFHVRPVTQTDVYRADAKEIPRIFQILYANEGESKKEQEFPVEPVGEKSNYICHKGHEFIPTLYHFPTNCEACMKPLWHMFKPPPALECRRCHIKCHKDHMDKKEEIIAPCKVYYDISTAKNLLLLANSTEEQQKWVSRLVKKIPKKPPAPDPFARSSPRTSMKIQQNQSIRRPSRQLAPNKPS", "assay": "MAPK binding affinity screen (DiscoveRx)", "settings": "component alone, row of combination at 62.5 μg/mL"}, "[3]": {"settings": "Flanagan and Nichols, 2018; cited from earlier work"}, "5-HT2A receptor": {"target": "5-HT2A receptor (Homo sapiens, UniProt P28223)", "sequence (P28223 whole entry)": "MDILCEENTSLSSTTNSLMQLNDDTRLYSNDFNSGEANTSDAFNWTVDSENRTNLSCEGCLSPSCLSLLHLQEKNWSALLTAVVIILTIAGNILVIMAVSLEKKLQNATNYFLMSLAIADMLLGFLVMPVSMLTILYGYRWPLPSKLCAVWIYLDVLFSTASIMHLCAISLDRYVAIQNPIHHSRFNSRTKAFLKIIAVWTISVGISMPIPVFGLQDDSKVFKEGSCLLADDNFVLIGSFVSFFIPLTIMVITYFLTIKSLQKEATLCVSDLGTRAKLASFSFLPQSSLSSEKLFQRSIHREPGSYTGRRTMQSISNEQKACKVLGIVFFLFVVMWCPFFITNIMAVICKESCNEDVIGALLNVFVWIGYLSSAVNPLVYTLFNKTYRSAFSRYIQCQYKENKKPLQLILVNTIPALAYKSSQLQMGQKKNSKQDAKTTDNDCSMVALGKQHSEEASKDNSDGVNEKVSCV", "settings": "Flanagan and Nichols, 2018; cited from earlier work"}, "PC12 cells": {"tested_on": "PC12 cells", "assay": "Neurite outgrowth in rat PC12 cells", "type": "cell-based", "settings": "6 days", "source_text": "Rat PC12 cells are a cell line derived from rat pheochromocytoma and are an immortalised cell line similar to the primary culture of fetal neurons. These cells are relatively easy to passage and culture and have some features of neurons, which makes them useful in the study of nerve physiology and pharmacology."}, "MAPK": {"tested_on": "MAPK", "assay": "MAPK binding screen, general statements", "settings": "low ng concentrations", "source_text": "It was identified that many combination formulations of tryptamines, He/PEP/Erinacine C, and niacin can interact with several mitogen-activated protein kinases (MAPKs) involved with brain health and can even provide synergistic benefits (Tables 7-8).\nIt was surprising and unexpected that such dilute psilocin at low ng concentrations produced a synergistic effect on MAPK binding when combined with other components because these low concentrations had no effect on MAPK binding when used alone. Therefore, one would have expected these low concentrations to be ineffective. The low concentrations also overcome the pharmacodynamic issues faced when using high concentrations of psilocin."}, "[4]": {"settings": "row of combination at 2.5 μg/mL"}, "[5]": {"settings": "row of combination at 125 μg/mL"}, "[6]": {"settings": "row of combination at 3, 0.2 ng/mL"}, "[7]": {"settings": "row of combination at 250 μg/mL"}, "[8]": {"settings": "row of combination at 16, 16 ng/mL"}, "[9]": {"settings": "row of combination at 0.6, 0.6 ng/mL"}}}
{"smiles": "NCCc1c[nH]c2cccc(OP(=O)(O)O)c12", "note": "[Norbaeo, 4-phosphoryloxy-tryptamine]", "values": [{"measurement": "expression of the anti-inflammatory cytokine IL-10", "setting": "IL-10", "value": "significantly upregulate"}, {"measurement": "MAPK binding affinity value of individual component", "setting": "TRKB (NTRK2)", "value": 0}, {"measurement": "MAPK binding affinity value of individual component", "setting": "p38-alpha (MAPK14); combinations at 2.5 μg/mL", "value": 22}, {"measurement": "MAPK binding affinity value of individual component", "setting": "p38-alpha (MAPK14); combinations at 5 μg/mL", "value": 12}, {"measurement": "MAPK binding affinity value of individual component", "setting": "p38-alpha (MAPK14); combinations at 10 μg/mL", "value": 17}, {"measurement": "MAPK binding affinity value of individual component", "setting": "[1]; [4]", "value": 3}, {"measurement": "MAPK binding affinity value of individual component", "setting": "[1]; rows of combinations at 62.5 μg/mL", "value": 3}, {"measurement": "MAPK binding affinity value of individual component", "setting": "TRKA (NTRK1); combinations at 250 μg/mL", "value": 3}, {"measurement": "MAPK binding affinity value of individual component", "setting": "JNK3 (MAPK10); row of combination at 5 μg/mL", "value": 4}, {"measurement": "MAPK binding affinity value of individual component", "setting": "JNK3 (MAPK10); [5]", "value": 4}, {"measurement": "IL-6 expression", "setting": "IL-6", "value": "significantly reduced"}]}
{"smiles": "CC(C)C1=C2C3=CC=C(CO)[C@H]4O[C@H]5[C@@H](OC[C@@H](O)[C@@H]5O)O[C@@H]4[C@]3(C)CC[C@@]2(C)CC1", "note": "[Erinacine C]", "values": [{"measurement": "MAPK binding affinity value of individual component", "setting": "JNK3 (MAPK10); [6]", "value": 6}]}
{"smiles": "CNCCc1c[nH]c2cccc(O)c12", "note": "[Norpsilo, 4-hydroxy-N-methyl-tryptamine]", "values": [{"measurement": "expression of the anti-inflammatory cytokine IL-10", "setting": "IL-10", "value": "significantly upregulate"}, {"measurement": "anti-inflammatory effect (TNF-α expression)", "setting": "TNF-α", "value": "have anti-inflammatory effects at certain concentrations"}, {"measurement": "MAPK binding affinity value of individual component", "setting": "p38-alpha (MAPK14); combinations at 2.5 μg/mL", "value": 15}, {"measurement": "MAPK binding affinity value of individual component", "setting": "p38-alpha (MAPK14); combinations at 5 μg/mL", "value": 1}, {"measurement": "MAPK binding affinity value of individual component", "setting": "p38-alpha (MAPK14); combinations at 10 μg/mL", "value": 21}, {"measurement": "MAPK binding affinity value of individual component", "setting": "p38-alpha (MAPK14); combinations at 250 μg/mL", "value": 21}, {"measurement": "MAPK binding affinity value of individual component", "setting": "[1]; [7]", "value": 0}, {"measurement": "MAPK binding affinity value of individual component", "setting": "JNK3 (MAPK10); row of combination at 5 μg/mL", "value": 19}]}
{"smiles": "CN(C)CCc1c[nH]c2ccccc12", "note": "[DMT, N,N-dimethyltryptamine]", "values": [{"measurement": "MAPK binding affinity value of individual component", "setting": "[1]; [8]", "value": 5}]}
{"smiles": "COc1ccc2c3c([nH]c2c1)C(C)=NCC3", "note": "[harmaline, 3,4-dihydro-7-methoxy-1-methyl-carboline]", "values": [{"measurement": "MAO-A inhibition", "setting": "MAO-A", "value": "specific MAO-A inhibitors"}, {"measurement": "MAO-B inhibition", "setting": "MAO-B", "value": "poor inhibitors of MAO-B"}]}
{"smiles": "CNCCc1c[nH]c2cccc(OP(=O)(O)O)c12", "note": "[Baeo, 4-phosphoryloxy-N-methyltryptamine]", "values": [{"measurement": "MAPK binding affinity value of individual component", "setting": "TRKB (NTRK2)", "value": 12}, {"measurement": "MAPK binding affinity value of individual component", "setting": "p38-alpha (MAPK14); combinations at 2.5 μg/mL", "value": 2}, {"measurement": "MAPK binding affinity value of individual component", "setting": "p38-alpha (MAPK14); combinations at 5 μg/mL", "value": 9}, {"measurement": "MAPK binding affinity value of individual component", "setting": "p38-alpha (MAPK14); combinations at 10 μg/mL", "value": 1}, {"measurement": "MAPK binding affinity value of individual component", "setting": "p38-alpha (MAPK14); combinations at 250 μg/mL", "value": 1}, {"measurement": "MAPK binding affinity value of individual component", "setting": "[1]; [4]", "value": 1}, {"measurement": "hallucinogenic effect after consumption", "setting": "[2]; 4 mg, anecdotal, Gartz 1991", "value": "gentle hallucinogenic experience"}, {"measurement": "hallucinogenic effect after oral consumption", "setting": "[2]; 10 mg and 20 mg, case studies", "value": "did not produce any hallucinogenic effects"}, {"measurement": "MAPK binding affinity value of individual component", "setting": "TRKA (NTRK1); combinations at 250 μg/mL", "value": 6}, {"measurement": "MAPK binding affinity value of individual component", "setting": "TRKA (NTRK1); [5]", "value": 3}, {"measurement": "MAPK binding affinity value of individual component", "setting": "ROCK2", "value": 0}, {"measurement": "MAPK binding affinity value of individual component", "setting": "JNK3 (MAPK10); [5]", "value": 8}]}
{"smiles": "COc1cc(C[C@@H](C)N)c(OC)cc1I", "note": "[(R)-2,5-dimethoxy-4-iodoamphetamine]", "values": [{"measurement": "inflammation in the lungs", "setting": "[3]", "value": "prevent and reverse inflammation in the lungs"}, {"measurement": "5-HT2A receptor activation", "setting": "5-HT2A receptor", "value": "activate the 5-HT2A receptor"}]}
{"smiles": "CN(C)CCc1c[nH]c2cccc(O)c12", "note": "[Psilocin, 4-hydroxy-N,N-dimethyltryptamine]", "values": [{"measurement": "highest mean neurite outgrowth, of vehicle control", "setting": "PC12 cells; 0.043 μg/mL", "value": 168, "unit": "%"}, {"measurement": "effect on MAPK binding when used alone", "setting": "MAPK", "value": "no effect"}, {"measurement": "MAPK binding affinity value of individual component", "setting": "[1]; row of combination at 30, 1.8 ng/mL", "value": 1}, {"measurement": "MAPK binding affinity value of individual component", "setting": "JNK3 (MAPK10); [9]", "value": 1}, {"measurement": "MAPK binding affinity value of individual component", "setting": "JNK3 (MAPK10); [6]", "value": 2}]}
{"smiles": "O=C(O)c1cccnc1", "note": "[Niacin, nicotinic acid, reference compound]", "values": [{"measurement": "highest mean neurite outgrowth, of vehicle control", "setting": "PC12 cells; 0.35 μg/mL", "value": 112, "unit": "%"}, {"measurement": "anti-inflammatory effect (TNF-α expression)", "setting": "TNF-α", "value": "have anti-inflammatory effects at certain concentrations"}, {"measurement": "MAPK binding affinity value of individual component", "setting": "[1]; [7]", "value": 6}, {"measurement": "MAPK binding affinity value of individual component", "setting": "[1]; [8]", "value": 5}, {"measurement": "MAPK binding affinity value of individual component", "setting": "JNK3 (MAPK10); [9]", "value": 0}]}
{"smiles": "COc1ccc2c(c1)[nH]c1c(C)nccc12", "note": "[Harmine, 7-methyoxy-1-methyl-carboline]", "values": [{"measurement": "MAO-A inhibition", "setting": "MAO-A", "value": "specific MAO-A inhibitors"}, {"measurement": "MAO-B inhibition", "setting": "MAO-B", "value": "poor inhibitors of MAO-B"}]}
